Tests used:
GluT-1 = GluT-1 protein levels in SCC-25 cells (Western blot); type: cell-based, Human; conditions: 10 and 25 μM, 16 hours, FIG. 1B
Protocol: Human SSC-25 (squamous cell carcinoma) or rat H9c2 (ventricular cardiomyocyte) cells were grown to confluence in 100 mm culture dishes at 37° C., 10% CO2 in DMEM with 10% fetal calf serum. Cells were then washed twice with PBS and incubated with vehicle control, compound D (10 and 25 μM), or compound C (5, 10, and 20 μM) for 16 hours. Plates were placed on ice, culture supernatant was removed, and lysis buffer-1 (LB-1: 10 mM Tris pH 7.4, 1 mM EDTA, 150 mM sodium chloride, 0.5% IGEPAL) was added. Cell lysates were harvested by scraping, incubated for 15 minutes on ice, and then centrifuged at 3000×g for 5 minutes at 4° C. The supernatant, which represents the cytosolic fraction, was collected and cytosolic proteins were separated under reducing conditions using SDS-polyacrylamide gel electrophoresis (SDS-PAGE) with equal amounts of protein loaded per lane.
SDS-PAGE was conducted at 150 V for 2 hours, after which the proteins were transferred to a PVDF membrane at 400 mA for 1.5 hours at 4° C. The membrane was incubated in blocking buffer for 2 hours or overnight and washed once with T-TBS prior to addition of anti-GluT-1 antibody (Alpha Diagnostics) diluted to working concentration in blocking buffer. […]

[1] = test system: inducible nitric oxide synthase (iNOS); test: In vivo iNOS mRNA expression (quantitative PCR); design: species or system Swiss Webster male mice; conditions: mice, oral gavage; within 8 hours following treatment, then returned to control levels; normalized to 18S rRNA; FIG. 10A
Protocol: To determine gene induction patterns over time, twenty four Swiss Webster male mice (30-32 g) were obtained from Simonsen, Inc. and treated by oral gavage with a 4 ml/kg volume of either 0.5% carboxymethyl cellulose (CMC; Sigma-Aldrich, St. Louis Mo.) (0 mg/kg/day) or […] compound B (25 mg/ml in 0.5% CMC) (100 mg/kg). At 4, 8, 16, 24, 48, or 72 hours after the final dose, animals were anesthetized with isoflurane. The mice were then sacrificed and tissue samples of kidney, liver, brain, lung, and heart were isolated and stored in RNALATER solution (Ambion) at −80° C.
To investigate the dose response of compounds of the present invention, twelve Swiss Webster male mice (30-32 g) (obtained from Simonsen, Inc., Gilroy Calif.) were treated by oral gavage once per day for 4 days with a 4 ml/kg volume of either 0.5% carboxymethyl cellulose (CMC; Sigma-Aldrich, St. Louis Mo.), compound D (25 mg/ml in 0.5% CMC) (100 mg/kg/day), or compound B (7.5 and 25 mg/ml in 0.5% CMC) (30 and 100 mg/kg/day, respectively). Four hours after the final dose, animals were anesthetized, sacrificed, and approximately 150 mg of liver and each kidney were isolated and stored in RNALATER solution (Ambion) at −20° C.
Hypertension is a risk factor for diabetes and disorders and diseases associated with diabetes. The effects of compounds of the present invention on regulation of blood pressure were examined as follows. Animals were treated with compound B or compound D and RNA samples were prepared as described above in Example 4. […] Analysis of the relative level of gene expression was performed by quantitative PCR using a FASTSTART DNA MASTER SYBR GREEN I kit (Roche) and gene-specific primers, using a LIGHTCYCLER system (Roche), according to manufacturer's instructions. […]
The relative level of 18S ribosomal RNA gene expression was measured as a control. Quantitative PCR was performed using a QUANTITECT SYBR GREEN PCR kit (Qiagen) and gene-specific primers, using a LIGHTCYCLER system (Roche), according to manufacturer's instructions. […]

HIF-1α = HIF-1α stabilization in cells, nuclear fraction Western blot; type: cell-based, Human; conditions: various cell types, overnight incubation, 20% O2; FIG. 12A
Protocol: Stabilization of HIFα using compounds and methods of the present invention was examined as follows. Human cells derived from adenovirus-transformed fetal kidney epithelium (293A), cervical epithelial adenocarcinoma (HeLa), hepatocellular carcinoma (Hep3B), squamous carcinoma (SSC-25), and lung fibroblast (HLF) (see, e.g., American Type Culture Collection, Manassas Va.; and Qbiogene, Carlsbad Calif.) were separately seeded into 100 mm culture dishes and grown at 37° C., 20% O2, 10% CO2 in media as follows: HeLa cells in Dulbecco's Modification of Eagle's Medium (DMEM), 2% fetal bovine serum (FBS); HLF cells in DMEM, 10%FBS; 293A cells in DMEM, 5%FBS; and Hep3B cells in Minimal Essential Medium (MEM), Earle's BSS (Mediatech Inc., Herndon Va.), 2 mM L-glutamine, 0.1 mM non-essential amino acids, 1 mM sodium pyruvate, 10% FBS. When cell layers reached confluence, the media was replaced with OPTI-MEM media (Invitrogen Life Technologies, Carlsbad Calif.) and cell layers were incubated for approximately 24 hours in 20% O2, 10% CO2 at 37° C. Compound of the invention (one of compounds B, F, G, and H) or DMSO (0.5 to 1%) was then added to existing medium, and incubation was continued overnight.
Following incubation, the media was removed, centrifuged, and stored for analysis. […]

O=C(O)c1c[nH]c2c(ccc3cccnc32)c1=O [compound D, 4-Oxo-1,4-dihydro-[1,10]phenanthroline-3-carboxylic acid]
protein levels of GluT-1 (GluT-1): increased
expression of the gene encoding iNOS [1]: increased
HIFα stabilization (Western blot) (HIF-1α): stabilized HIFα in a dose-dependent manner
